Assay results taken from article PMC10811918, “Mechanisms of Bushen Tiaoxue Granules against controlled ovarian hyperstimulation-induced abnormal morphology of endometrium based on network pharmacology” (Journal of Ovarian Research, 2024).
Read-outs that look alike come from different tables or passages of the source.

Key:
[1] = tested on: Human endometrial stromal cells (hESC); experiment: Cytotoxicity on hESC (CCK8 cell viability); assay type: cell-based; conditions: for IC50: read-out: IC50 (inhibition of hESC proliferation)
Protocol: Human endometrial stromal cells (hESC) were obtained from the Meisen Chinese Tissue Culture Collections (Zhejiang, China). The basal culture medium for hESC comprised DMEM/F12 supplemented with 10% fetal bovine serum (FBS) and 1% penicillin–streptomycin. The culture environment was maintained at 5% CO2 and 37 °C. […] Six gradients of concentrations were established to determine the IC50 of these compounds.
(§1) D-Galactose (D-Gal) was procured from Solabio Company (Beijing, China) and prepared in DMEM/F12 at a concentration of 200 mM as the modeling drug. hESC were uniformly seeded at 4 × 10^3 cells/well in a 96-well plate with 6 replicates per group, while wells treated only with basal culture medium served as the control group. Following cell adhesion, a 24-h intervention with 200 mM D-Gal was administered, followed by a 24-h culture with the appropriate concentration of natural product selected from the screening. CCK8 solution (Solabio, Beijing, China) was added to the wells and incubated in the culture chamber for 2 h, and absorbance was recorded at 450 nm using a microplate reader (Bio-Rad, USA).
All data in this study were analyzed by SPSS 22.0 software, and the results were presented as mean ± SEM. The one-way ANOVA, followed with Turkey’s test was performed for multiple comparison. p value < 0.05 was considered statistically significant. GraphPad Prism is utilized for calculating IC50 values and organizing graphs.
Previous studies have identified an increased senescent phenotype in endometrial stromal cells post COH, which is unfavorable for decidualization during embryo implantation. D-Gal is a widely recognized mimetic agent causing oxidative stress damage and promoting aging.

[2] = tested on: hESC with D-Gal-induced damage; experiment: Protection against D-Gal-induced damage in hESC (CCK-8); assay type: cell-based, Human; conditions: 200 mM D-Gal 24 h, then compound 24 h at two concentrations: quercetin 50/25 μM, taxifolin 260/130 μM, kaempferol 400/200 μM, eriodictyol 230/115 μM, isorhamnetin 500/250 μM
Protocol: as §1
Cell viability was assessed using CCK-8 assay (Fig. 10A).

[3] = Blood drug concentration of kaempferol following BTG administration; assay type: in vivo, rat; conditions: rats, BTG 3.27 g/kg oral gavage for 3 days, sampling 10 min to 12 h
Excerpt: Supplementary file 13048_2023_1339_MOESM1_ESM.pdf: Additional file 1: Table S1. Composition of the BTG. Table S2. Identification of chemical components in BTG. Table S3. Affinity of ingredients with potential targets. Figure S1. […] Upon usage, it was sequentially diluted to obtain concentration gradient solutions. Utilizing the same 50 female SD rats as employed in the in vivo experiment, two rats constituted the blank control group, while the remaining 48 rats were divided into treatment groups, each consisting of 6 rats. […] The blood samples were centrifuged at 4°C, 3500 rpm for 10 min, and the supernatant was analyzed. Following the UPLC-MS analysis method described earlier, the peak areas of the analyte and internal standard were recorded to calculate the blood drug concentrations at each time point. […] The serum levels of (A) ALT, (B) AST, (C) CREA, (D) UA, and (E) UREA in each group of rats were measured using microplate assays. […]
stock solution of 200 μg/mL for the mixed control solution. […] The blood samples were centrifuged at 4°C, 3500 rpm for 10 min, and the supernatant was analyzed. Following the UPLC-MS analysis method described earlier, the peak areas of the analyte and internal standard were recorded to calculate the blood drug concentrations at each time point. […]

[4] = cited from earlier work
[5] = tested on: mice; conditions: dose higher than 800 μg; cited from earlier work
[6] = tested on: mouse embryos; parameters: method as in PMID 25896022; conditions: cited from earlier work
[7] = hESC, six concentration gradients

## O=c1c(O)c(-c2ccc(O)cc2)oc2cc(O)cc(O)c12 [kaempferol]
[1]
  IC50: 399 µM
[2]
  improvement of cellular viability damage caused by D-Gal: effective improvement
[3]
  kaempferol concentration in the blood following BTG administration: sustained detectable concentrations even at 8 h
[4]
  oral bioavailability: 41.88%

## O=C[C@H](O)[C@@H](O)[C@@H](O)[C@H](O)CO [D-Gal, D-Galactose, reference compound]
[1]; hESCs, 200 mM, read-out: inhibition of cell proliferation
  inhibition at 200000 µM: ~50%

## CS(=O)(=O)Nc1ccc([N+](=O)[O-])cc1Oc1ccccc1 [nimesulide]
[5]
  implantation sites: reduced

## O=C1c2c(O)cc(O)cc2OC(c2ccc(O)c(O)c2)C1O (stereo not shown) [taxifolin]
[1]; [7]
  IC50: 263 µM
[2]
  improvement of cellular viability damage caused by D-Gal: effective improvement

## O=C1C[C@@H](c2ccc(O)c(O)c2)Oc2cc(O)cc(O)c21 [eriodictyol]
[1]; [7]
  IC50: 233 µM
[2]
  improvement of cellular viability damage caused by D-Gal: effective improvement

## COc1cc(-c2oc3cc(O)cc(O)c3c(=O)c2O)ccc1O [isorhamnetin]
[1]; [7]
  IC50: > 500 µM
[2]
  improvement of cellular viability damage caused by D-Gal: failed to effectively ameliorate

## O=C(O)[C@H]1O[C@@H](Oc2cc3oc(-c4ccccc4)cc(=O)c3c(O)c2O)[C@H](O)[C@@H](O)[C@@H]1O [baicalin]
[6]
  adhesion rate and implantation rate of mouse embryos: increase

## O=c1c(O)c(-c2ccc(O)c(O)c2)oc2cc(O)cc(O)c12 [quercetin]
[1]
  IC50: 45.4 µM
[2]
  improvement of cellular viability damage caused by D-Gal: failed to effectively ameliorate
[4]
  oral bioavailability: 46.43%
